The values below are quoted from earlier work in US20180000827A1 (SYNTHON B.V., priority 2014, published 2018).

The structures appear in SMILES notation.

For the compound `COc1cc2ncnc(Nc3ccc(F)c(Cl)c3)c2cc1OCCCN1CCOCC1` [Gefitinib, 4-(3-chloro-4-fluorophenylamino)-7-methoxy-6-[3-(4-morpholinyl)propoxy] quinazoline], the “solubility dependence on pH” value was “highly dependent upon pH”.
